Structures can show the parent of a compound that is named as a salt.
Columns and labels:
NOTCH target genes [1] = test: NOTCH target gene expression in hair follicles of Phase 1 patients (Nanostring); assay type: in vivo, human; details: Homo sapiens, hair follicle, read-out: Inhibition range, NOTCH target down regulation
Text: Hair follicles were obtained at pre-defined time points to measure changes in NOTCH target genes expression by 6-(4-Tert-Butylphenoxy)Pyridin-3-Amine treatment. NOTCH target gene down-regulation in hair follicles has been reported to be a robust and indicative biomarker that correlates with both clinical efficacy and the incidence of DLTs (Tanis K Q, et al. Clin Pharmacol Ther 2016; 99(4):370-80; Cook N, et al. BJC 2018; 118(6):793-801).
Between 5 to 10 hairs were plucked to extract the complete and undamaged hairbulb (full hair follicle), and processed as described in Camidge D R, et al. Br J Cancer 2005; 92:1837-41 and Bradley B J, et al. Mol EcolNotes 2005; 5:961-4. RNA concentration was measured by Qubit (RNAHighSensitivity), and RNA integrity was evaluated on a RNA 6000 Pico chip. RNA samples were tested for gene expression profiling on a Nanostring platform.
(§1) Table 1: NOTCH target down regulation in hair follicles and blood cells from Phase 1 patients. Target gene down regulation (CCND3, cyclin-D3; HES1, Hairy and enhance of split-1; HES4, Hairy and enhance of split-4; HESS, Hairy and enhance of split-5; HEY1, hes related family bHLH transcription factor with YRPW motif1; HEY2; hes related family bHLH transcription factor with YRPW motif 2; HEYL, hes-related family bHLH transcription factor with YRPW motif-like; IL7R-α, Interleukin-7 receptor subunit alpha; NOTCH1; NOTCH2; NRARP (NOTCH Regulated Ankyrin Repeat Protein): […]

NOTCH target genes [2] = test: NOTCH target gene expression in whole blood of Phase 1 patients (Nanostring); assay type: in vivo; details: Homo sapiens, 600 mg dose group, CCND3, HEY1, IL7Rα, NOTCH1, NOTCH2, read-out: Inhibition range, NOTCH target down regulation
Protocol: In addition to hair follicles, gene expression profiling to measure changes in NOTCH target genes was also performed in whole blood as an alternative surrogate tissue.
Whole blood samples for gene expression analysis were collected in PAXgene Blood RNA Tubes and RNA extracted following their standard Blood RNA Kit for silica-membrane-based RNA isolation and purification (Beckton Dickinson). RNA samples were tested for gene expression profiling on a Nanostring platform.
as §1

[3] = Phase I/IIA dose escalation: visual symptoms (eye-related AE) per dose group; assay type: in vivo, human
Protocol: The dosing will be 15, 30, 60, 120, 170, 250, 400, or 600 mg of the 6-(4-Tert-Butylphenoxy)Pyridin-3-Amine monohydrochloride salt or higher per day or alternatively 20, 40, 60, 120, 170, 250, 400, or 600 mg of the 6-(4-Tert-Butylphenoxy)Pyridin-3-Amine monohydrochloride salt or higher per day. Dosing of 15, 30, 60, 120, 170, 250, 400, or 600 mg of the 6-(4-Tert-Butylphenoxy)Pyridin-3-Amine monohydrochloride salt corresponds to dosing of 13, 26, 52, 104, 148, 217, 348, or 522 mg of 6-(4-Tert-Butylphenoxy)Pyridin-3-Amine (free base). Dosing of 20, 40, 60, 120, 170, 250, 400, or 600 mg of the 6-(4-Tert-Butylphenoxy)Pyridin-3-Amine monohydrochloride salt corresponds to dosing of 17, 35, 52, 104, 148, 217, 348, or 522 mg of 6-(4-Tert-Butylphenoxy)Pyridin-3-Amine (free base). For this study, 6-(4-Tert-Butylphenoxy)Pyridin-3-Amine monohydrochloride salt was formulated into a capsule having a drug load of 5, 10, 20, 50 and 100 mg, respectively intended to be administered orally. • Patients will meet the following criteria:
In the dose escalation cohort, patients in dose group (DG) 4 receiving 120mg of 6-(4-Tert-Butylphenoxy)Pyridin-3-Amine monohydrochloride salt and patients in higher dose groups reported visual symptoms with increasing incidence. It is believed that the occurrence of visual symptoms is a pharmacodynamic effect of 6-(4-Tert-Butylphenoxy)Pyridin-3-Amine. This makes a dose of 120 mg and higher of the 6-(4-Tert-Butylphenoxy)Pyridin-3-Amine monohydrochloride salt the therapeutic dose of choice.

CC(C)(C)c1ccc(Oc2ccc(N)cn2)cc1 [6-(4-Tert-Butylphenoxy)Pyridin-3-Amine monohydrochloride]
inhibition at 60 mg (NOTCH target genes [1]; 60 mg dose group, HES4, HES5, NRARP): ≤ 80%
inhibition at 120 mg (NOTCH target genes [1]; 120 mg dose group, CCND3, HES4, HES5, HEYL, HEY2): ≤ 95%
inhibition at 170 mg (NOTCH target genes [1]; 170 mg dose group, HES1): ≤ 75%
inhibition at 250 mg (NOTCH target genes [1]; 250 mg dose group, CCND3, HES1, HEY2, NRARP): ≤ 80%
inhibition at 600 mg (NOTCH target genes [2]): ≤ 50%
Eye-related AE, % on total pts per DG ([3]; DG4 (120 mg)): 43%
dose at and above which visual symptoms were reported (increasing incidence) ([3]; DG4 and higher dose groups, once daily oral): ≥ 120 mg
Eye-related AE, % on total pts per DG ([3]; DG5 (170 mg)): 67%
Eye-related AE, % on total pts per DG ([3]; DG6 (250 mg)): 75%
Eye-related AE, % on total pts per DG ([3]; DG7 (400 mg)): 67%
Eye-related AE, % on total pts per DG ([3]; DG8 (600 mg)): 67%
Adaptative visual difficulty, #AEs ([3]; all dose groups): 1
Blurred vision, #AEs ([3]; all dose groups): 6
Eye disorder, #AEs ([3]; all dose groups): 2
Eye-related AE Total, #AEs ([3]; all dose groups): 26
Intermittent color vision deficiency/ Intermittent blurred vision, #AEs ([3]; all dose groups): 2
Photophobia, #AEs ([3]; all dose groups): 2
Photopsy, #AEs ([3]; all dose groups): 3
Transient defect in accommodation to dim light, #AEs ([3]; all dose groups): 7
Visual alteration, #AEs ([3]; all dose groups): 2
Visual disturbance in light exposure, #AEs ([3]; all dose groups): 1

— patent US20230338347A1, “New Use of Inhibitors of the Notch Signalling Pathway” (Cellestia Biotech AG, priority 2020, published 2023)
